By IC50 is commonly meant the concentration that inhibits the measured activity by half. Higher therefore signals weaker potency. What is called Kd is the equilibrium constant for the complex coming apart.

Where only a bound is given, the exact number is not on record here.

The values that follow come from BindingDB's records for PubMed 38457911 (China Pharmaceutical University).

Test [1] deals with E3 ubiquitin-protein ligase CBL. In words: Inhibition of c-Cbl (unknown origin) by HTRF method. For orientation: In TR-FRET formats the signal depends on donor and acceptor labels being close together.
For test [2] the target is unchanged. In words: Inhibition of c-Cbl (unknown origin) by TR-FRET assay.
Test [3] shares this target. In words: Inhibition of c-Cbl (unknown origin) expressed in Escherichia coli measured for 90 mins by HTRF method.
In test [4] the target is E3 ubiquitin-protein ligase CBL (Homo sapiens) (UniProt P22681). Description: Binding affinity to c-Cbl (unknown origin) assessed as dissociation constant by SPR assay. A general note: SPR reads the build-up and loss of mass on a sensor chip optically.

In test [1], `CC(C)[C@H]1CN(C)CCN1Cc1cc(C(=O)Nc2cccc(C3([C@@H](F)c4nncn4C)CC(F)(F)C3)c2)nc(C2CC2)c1` showed an IC50 of 8 nM. This lies in the single-digit nanomolar range.
On the same count and under the same terms, next, `Cn1cnnc1-c1cc(C#N)ccc1-c1cc(C2CC2)nc(N2Cc3c(cc(CNCC4(F)CCC4)cc3C(F)(F)F)C2=O)c1`: below 200 nM.
`C[C@H]1CCCN(Cc2cc(C(F)(F)F)c3[nH]c(-c4cccc([C@]5(c6nncn6C)C[C@@H](C)C5)c4)nc3c2)C1` had an IC50 in test [2] above 10000 nM.
`Cn1cnnc1[C@]1(c2cccc(NC(=O)c3cc(CN4CCC[C@H](C(F)F)C4)cn4ccnc34)c2)C[C@H](CC#N)C1` gave an IC50 in test [3] of 10 nM.
Same read-out and setting: next, `CC(c1cc(C(=O)Nc2cccc([C@]3(c4nncn4C)C[C@@H](CC#N)C3)c2)nc2cc[nH]c12)N1CCC[C@H](C)C1` (stereo partly specified): 40 nM.
As to `COCC1(NCc2cc3c(c(C(F)(F)F)c2)CN(c2cccc([C@]4(c5nncn5C)C[C@H](OC)C4)c2)C3=O)CC1` [2-(3-((1r,3r)-3-methoxy-1-(4-methyl-4H-1,2,4-triazol-3-yl)cyclobutyl)phenyl)-6-(((1-(methoxymethyl)cyclopropyl)amino)methyl)-4-(trifluoromethyl)isoindolin-1-one], the Kd in test [4] turned out to be 210 nM.
